Laboratory results from US9458137B2, “Substituted indol-5-ol derivatives and their therapeutical applications” (NantBioScience, Inc., priority 2012, dated 2016).

Assays:
[1] = molecular target: 1tk(h) (Homo sapiens, UniProt Q08881); experiment: Kinase panel activity; format: biochemical; details: 0.1 μM, ATP Km
Experimental: (§1) The effect of NTW-3475 on kinase activity was tested for a wide range of kinases and is shown in Table 2: Summary Sheet, Activity % ATP Concentration: Km

[2] = molecular target: NEK3(h) (Homo sapiens, UniProt P51956); experiment: Kinase panel activity; format: biochemical; details: 0.1 μM, ATP Km
Experimental: as §1

[3] = molecular target: PKA(h) (Homo sapiens, UniProt P17612); experiment: Kinase panel activity; format: biochemical; details: 0.1 μM, ATP Km
Experimental: as §1

[4] = molecular target: CK1γ1(h) (Homo sapiens, UniProt Q9HCP0); experiment: Kinase panel activity; format: biochemical; details: 0.1 μM, ATP Km
Experimental: as §1

[5] = molecular target: GSK3β(h) (Homo sapiens, UniProt P49841); experiment: Kinase panel activity; format: biochemical; details: 0.1 μM, ATP Km
Experimental: as §1

[6] = molecular target: PAR-1Bα(h) (Homo sapiens, UniProt Q7KZI7); experiment: Kinase panel activity; format: biochemical; details: 0.1 μM, ATP Km
Experimental: as §1

[7] = molecular target: p70S6K(h) (Homo sapiens, UniProt P23443); experiment: Kinase panel activity; format: biochemical; details: 0.1 μM, ATP Km
Experimental: as §1

[8] = molecular target: JAK2(h) (Homo sapiens, UniProt O60674); experiment: Kinase panel activity; format: biochemical; details: 0.1 μM, ATP Km
Experimental: as §1

[9] = molecular target: DAPK1(h) (Homo sapiens, UniProt P53355); experiment: Kinase panel activity; format: biochemical; details: 0.1 μM, ATP Km
Experimental: as §1

[10] = molecular target: T1, Tie2(Y897S)(h) (Homo sapiens, UniProt Q02763, Y897S); experiment: Kinase panel activity; format: biochemical; details: 0.1 μM, ATP Km
T1 construct: purchased Millipore (KinaseProfiler service)
Experimental: as §1

[11] = molecular target: PAK2(h) (Homo sapiens, UniProt Q13177); experiment: Kinase panel activity; format: biochemical; details: 0.1 μM, ATP Km
Experimental: as §1

[12] = molecular target: ALK(h) (Homo sapiens, UniProt Q9UM73); experiment: Kinase panel activity; format: biochemical; details: 0.1 μM, ATP Km
Experimental: as §1

[13] = molecular target: T2, ROCK-II(r) (Rattus norvegicus, UniProt Q62868); experiment: Kinase panel activity; format: biochemical; details: 0.1 μM, ATP Km
T2 construct: purchased Millipore (KinaseProfiler service)
Experimental: as §1

[14] = molecular target: CK2α2(h) (Homo sapiens, UniProt P19784); experiment: Kinase panel activity; format: biochemical; details: 0.1 μM, ATP Km
Experimental: as §1

[15] = molecular target: IR(h) (Homo sapiens, UniProt P06213); experiment: Kinase panel activity; format: biochemical; details: 0.1 μM, ATP Km
Experimental: as §1

[16] = molecular target: CaMKIIδ(h) (Homo sapiens, UniProt Q13557); experiment: Kinase panel activity; format: biochemical; details: 0.1 μM, ATP Km
Experimental: as §1

[17] = molecular target: F1t1(h) (Homo sapiens, UniProt P17948); experiment: Kinase panel activity; format: biochemical; details: 0.1 μM, ATP Km
Experimental: as §1

[18] = test system: human MV411 human acute myelogenous leukemia (AML) xenograft; format: in vivo, SCID mice; details: 25, 50 mg/kg, 5-day on, two-day off for two cycles; female SCID mice
Experimental: The objective of the first study was to evaluate antitumor activities of the novel multiple-kinase inhibitor NTW-3475 against human MV411 human acute myelogenous leukemia (AML) xenograft model in female SCID mice.
Four or six animals were randomly assigned to each study group. Each animal was injected subcutaneously in the left and right flank area with 0.1 ml of 1.0×10^8 MV411 cells per mL
Each test or control animal was placed on a 5-day on, two-day off for two cycles of vehicle negative control or 25, 50 mg/kg of NTW-3475. Tumor growth was measured with a digital hand held caliper twice weekly (once tumor emerges) prior to the first dosing and then two to three times weekly until euthanized. Animals were weighed prior to tumor cell injection, prior to dosing, two to three times weekly with tumor growth measurements, and prior to euthanasia.
FIGS. 27-32 depict the results of various concentrations of NTW-3456 on tumor growth in scid mouse/xenograft model of AML using MV411 cells. […] This invention is characterized as it is here was a correlation between the inhibition of the pFLT3 kinase and growth control.

T2 sequence (Q62868 whole entry): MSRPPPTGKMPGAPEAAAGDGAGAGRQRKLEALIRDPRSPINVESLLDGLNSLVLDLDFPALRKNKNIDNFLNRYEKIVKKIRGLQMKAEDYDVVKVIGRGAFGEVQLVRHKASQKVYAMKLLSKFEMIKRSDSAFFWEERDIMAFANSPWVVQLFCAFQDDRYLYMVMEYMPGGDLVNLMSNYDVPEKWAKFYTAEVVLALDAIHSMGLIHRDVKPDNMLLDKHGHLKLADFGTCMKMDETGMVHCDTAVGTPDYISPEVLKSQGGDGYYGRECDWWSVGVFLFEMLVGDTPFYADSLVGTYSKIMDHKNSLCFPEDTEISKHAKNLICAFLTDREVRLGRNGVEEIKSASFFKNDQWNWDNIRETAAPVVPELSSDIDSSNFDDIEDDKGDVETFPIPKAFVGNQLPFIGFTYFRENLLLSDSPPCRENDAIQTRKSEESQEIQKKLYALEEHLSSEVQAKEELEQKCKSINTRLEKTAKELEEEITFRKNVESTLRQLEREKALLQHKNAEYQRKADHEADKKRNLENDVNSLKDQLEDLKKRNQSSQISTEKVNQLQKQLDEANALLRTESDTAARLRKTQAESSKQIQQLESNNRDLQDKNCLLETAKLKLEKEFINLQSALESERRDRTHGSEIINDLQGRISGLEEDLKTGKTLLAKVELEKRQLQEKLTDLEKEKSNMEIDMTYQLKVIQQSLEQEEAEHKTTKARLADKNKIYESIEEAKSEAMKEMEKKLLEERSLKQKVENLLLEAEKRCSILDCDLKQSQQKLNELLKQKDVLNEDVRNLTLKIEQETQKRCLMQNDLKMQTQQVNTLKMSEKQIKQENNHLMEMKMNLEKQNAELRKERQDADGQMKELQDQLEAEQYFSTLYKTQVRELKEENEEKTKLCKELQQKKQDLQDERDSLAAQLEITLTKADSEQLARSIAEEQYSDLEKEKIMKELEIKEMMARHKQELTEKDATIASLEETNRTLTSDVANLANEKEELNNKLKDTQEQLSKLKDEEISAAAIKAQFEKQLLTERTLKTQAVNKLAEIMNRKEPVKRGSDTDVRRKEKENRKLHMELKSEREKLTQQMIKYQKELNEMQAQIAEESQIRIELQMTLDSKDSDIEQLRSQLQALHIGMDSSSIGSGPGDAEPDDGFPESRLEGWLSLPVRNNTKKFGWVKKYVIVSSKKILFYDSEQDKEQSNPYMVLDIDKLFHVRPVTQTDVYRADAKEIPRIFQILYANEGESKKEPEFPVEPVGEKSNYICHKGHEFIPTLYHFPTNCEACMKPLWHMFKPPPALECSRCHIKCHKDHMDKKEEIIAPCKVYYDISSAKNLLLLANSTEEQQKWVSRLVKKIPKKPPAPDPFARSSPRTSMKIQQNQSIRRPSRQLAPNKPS
JAK2(h), sequence (O60674 whole entry): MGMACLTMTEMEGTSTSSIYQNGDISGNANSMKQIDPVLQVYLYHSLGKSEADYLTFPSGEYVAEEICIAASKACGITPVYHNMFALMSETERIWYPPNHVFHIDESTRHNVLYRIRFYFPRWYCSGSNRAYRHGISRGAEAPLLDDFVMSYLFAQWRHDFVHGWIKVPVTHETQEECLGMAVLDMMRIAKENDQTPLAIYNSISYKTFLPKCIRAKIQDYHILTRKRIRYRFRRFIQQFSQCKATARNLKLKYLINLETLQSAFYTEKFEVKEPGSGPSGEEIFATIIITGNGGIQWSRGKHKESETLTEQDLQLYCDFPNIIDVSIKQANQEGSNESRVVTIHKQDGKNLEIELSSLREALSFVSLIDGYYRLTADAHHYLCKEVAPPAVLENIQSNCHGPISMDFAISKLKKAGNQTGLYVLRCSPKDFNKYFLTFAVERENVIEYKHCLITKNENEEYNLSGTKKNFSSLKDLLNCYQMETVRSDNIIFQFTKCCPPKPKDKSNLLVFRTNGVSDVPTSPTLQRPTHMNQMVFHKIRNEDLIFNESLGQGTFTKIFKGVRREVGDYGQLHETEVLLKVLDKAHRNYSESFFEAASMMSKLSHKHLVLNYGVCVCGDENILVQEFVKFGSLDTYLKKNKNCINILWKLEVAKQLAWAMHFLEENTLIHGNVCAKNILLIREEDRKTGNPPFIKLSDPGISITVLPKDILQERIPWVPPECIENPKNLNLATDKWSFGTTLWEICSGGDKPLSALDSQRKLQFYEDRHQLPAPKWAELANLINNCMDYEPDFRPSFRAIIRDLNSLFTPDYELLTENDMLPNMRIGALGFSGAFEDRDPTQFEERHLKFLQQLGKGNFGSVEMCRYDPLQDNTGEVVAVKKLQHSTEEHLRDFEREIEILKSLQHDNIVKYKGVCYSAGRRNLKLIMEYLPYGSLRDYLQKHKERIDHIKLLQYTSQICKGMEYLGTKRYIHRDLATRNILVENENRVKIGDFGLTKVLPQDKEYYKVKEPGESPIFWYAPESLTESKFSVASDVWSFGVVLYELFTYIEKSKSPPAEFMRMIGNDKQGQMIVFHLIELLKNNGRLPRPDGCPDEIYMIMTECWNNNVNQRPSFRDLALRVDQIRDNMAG
NEK3(h), sequence (P51956 whole entry): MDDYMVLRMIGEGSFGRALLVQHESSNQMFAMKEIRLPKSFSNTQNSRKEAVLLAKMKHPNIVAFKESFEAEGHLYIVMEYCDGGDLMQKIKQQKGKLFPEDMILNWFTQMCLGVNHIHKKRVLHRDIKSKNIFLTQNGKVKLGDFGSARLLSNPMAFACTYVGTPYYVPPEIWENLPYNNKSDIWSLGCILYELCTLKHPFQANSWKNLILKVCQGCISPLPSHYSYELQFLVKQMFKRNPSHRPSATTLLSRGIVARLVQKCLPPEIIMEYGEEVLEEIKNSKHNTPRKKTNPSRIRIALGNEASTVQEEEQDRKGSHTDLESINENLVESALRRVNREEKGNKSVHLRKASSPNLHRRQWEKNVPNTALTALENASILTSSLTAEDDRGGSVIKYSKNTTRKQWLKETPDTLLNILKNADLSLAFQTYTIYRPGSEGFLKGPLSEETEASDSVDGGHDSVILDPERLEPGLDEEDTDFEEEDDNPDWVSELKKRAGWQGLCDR
ALK(h), sequence (Q9UM73 19-1620): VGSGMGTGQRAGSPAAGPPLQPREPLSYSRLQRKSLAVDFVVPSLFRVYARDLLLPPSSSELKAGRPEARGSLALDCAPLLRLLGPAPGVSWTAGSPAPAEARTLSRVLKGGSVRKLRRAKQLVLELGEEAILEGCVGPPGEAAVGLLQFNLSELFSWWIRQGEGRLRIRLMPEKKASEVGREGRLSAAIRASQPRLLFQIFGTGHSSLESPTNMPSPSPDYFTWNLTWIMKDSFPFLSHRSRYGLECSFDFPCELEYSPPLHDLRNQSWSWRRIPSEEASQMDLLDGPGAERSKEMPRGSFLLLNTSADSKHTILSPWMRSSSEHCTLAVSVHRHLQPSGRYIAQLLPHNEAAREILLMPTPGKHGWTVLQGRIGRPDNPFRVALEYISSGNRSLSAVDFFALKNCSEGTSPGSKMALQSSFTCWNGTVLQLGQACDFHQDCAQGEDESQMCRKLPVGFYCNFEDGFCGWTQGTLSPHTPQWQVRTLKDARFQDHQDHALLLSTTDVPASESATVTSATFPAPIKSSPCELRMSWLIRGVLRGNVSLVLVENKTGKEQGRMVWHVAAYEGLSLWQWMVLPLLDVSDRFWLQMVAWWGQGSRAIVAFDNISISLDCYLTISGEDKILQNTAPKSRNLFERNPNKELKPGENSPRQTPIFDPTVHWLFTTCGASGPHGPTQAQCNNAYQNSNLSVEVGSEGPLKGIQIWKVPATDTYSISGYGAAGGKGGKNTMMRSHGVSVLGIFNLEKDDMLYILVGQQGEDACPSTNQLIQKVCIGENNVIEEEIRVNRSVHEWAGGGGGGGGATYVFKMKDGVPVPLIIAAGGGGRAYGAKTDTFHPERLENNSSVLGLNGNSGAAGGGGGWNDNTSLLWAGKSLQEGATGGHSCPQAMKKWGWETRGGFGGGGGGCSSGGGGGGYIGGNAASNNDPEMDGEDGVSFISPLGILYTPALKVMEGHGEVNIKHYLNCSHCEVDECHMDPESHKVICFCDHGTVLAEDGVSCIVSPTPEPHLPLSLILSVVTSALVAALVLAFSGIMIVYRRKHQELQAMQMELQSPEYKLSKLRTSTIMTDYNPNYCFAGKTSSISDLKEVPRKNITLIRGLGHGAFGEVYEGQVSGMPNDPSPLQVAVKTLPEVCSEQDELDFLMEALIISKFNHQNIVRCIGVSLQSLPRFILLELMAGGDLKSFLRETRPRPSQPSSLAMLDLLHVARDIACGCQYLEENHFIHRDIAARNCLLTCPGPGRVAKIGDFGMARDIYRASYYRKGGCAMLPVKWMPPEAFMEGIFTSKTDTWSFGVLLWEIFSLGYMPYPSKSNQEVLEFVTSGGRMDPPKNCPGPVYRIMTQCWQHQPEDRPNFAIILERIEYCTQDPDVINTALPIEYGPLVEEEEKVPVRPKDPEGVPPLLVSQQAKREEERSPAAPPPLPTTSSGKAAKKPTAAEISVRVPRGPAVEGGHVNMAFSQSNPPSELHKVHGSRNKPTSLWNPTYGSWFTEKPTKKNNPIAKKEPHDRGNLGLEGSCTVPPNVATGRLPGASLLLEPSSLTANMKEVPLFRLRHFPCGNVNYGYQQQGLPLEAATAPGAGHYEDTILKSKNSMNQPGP
GSK3β(h), sequence (P49841 whole entry): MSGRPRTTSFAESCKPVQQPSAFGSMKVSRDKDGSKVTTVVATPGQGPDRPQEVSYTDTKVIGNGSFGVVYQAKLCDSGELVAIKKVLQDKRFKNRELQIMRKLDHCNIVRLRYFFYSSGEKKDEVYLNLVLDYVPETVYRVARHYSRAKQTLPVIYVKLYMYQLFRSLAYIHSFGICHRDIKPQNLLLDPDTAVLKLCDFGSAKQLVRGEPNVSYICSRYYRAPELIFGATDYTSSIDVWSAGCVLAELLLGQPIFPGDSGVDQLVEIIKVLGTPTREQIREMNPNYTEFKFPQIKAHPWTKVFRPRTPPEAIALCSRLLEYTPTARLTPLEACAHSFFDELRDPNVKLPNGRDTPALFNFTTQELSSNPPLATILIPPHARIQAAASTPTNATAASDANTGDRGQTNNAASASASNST

- Activity % [1]: 29%
- Activity % [2]: 82%
- Activity % [3]: 111%
- Activity % [4]: 96%
- Activity % [5]: 106%
- Activity % [6]: 15%
- Activity % [7]: 84%
- Activity % [8]: 8%
- Activity % [9]: 88%
- Activity % [10]: 3%
- Activity % [11]: 65%
- Activity % [12]: 17%
- Activity % [13]: 42%
- Activity % [14]: 115%
- Activity % [15]: 30%
- Activity % [16]: 98%
- Activity % [17]: 11%
SMILES: Cc1cc2c(F)c(Oc3nc(Nc4cc(C5CC5)[nH]n4)cc(N4CCN(C)CC4)n3)cc(F)c2[nH]1 [NTW-3475]
- anti-tumor effect against AML [18]: strong anti-tumor effect
